{"source": "paper PMC9165844", "about": "(PLoS ONE, 2022)", "key": {"astrocytes": {"test_system": "astrocytes", "assay": "Cytotoxic effect by MTT assay on astrocytes", "conditions": "for Astrocytes viability: control for cytotoxicity effect; for Cytotoxicity in astrocyte cultures: MTT, 12.5-200 μM"}, "Aβ1–42": {"molecular_target": "T1, Aβ1–42 (Homo sapiens, UniProt P05067)", "T1 construct": "Aβ of 42 aa residues (Aβ1–42) represents the most amyloidogenic and toxic form; purchased Calbiochem PP69", "T1 sequence (P05067 672-713)": "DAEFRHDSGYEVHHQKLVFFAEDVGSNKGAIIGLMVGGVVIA", "assay": "Inhibition of Aβ1–42 aggregation by Thioflavin T (ThT) assay", "format": "biochemical", "conditions": "compound at 100 μM, 48 h, 37°C, ThT fluorescence; read-out: Percentage of inhibition of Aβ1–42 fibrillation"}, "[1]": {"assay": "Solubility in solvents noted for the synthesized compounds", "format": "physicochemical", "conditions": "qualitative"}, "PC12": {"test_system": "PC12", "assay": "Cytotoxic effect by MTT assay on PC12 cells", "conditions": "12.5-200 μM"}, "NIH3T3 fibroblasts": {"test_system": "NIH3T3 fibroblasts", "assay": "Cytotoxic effect by MTT assay on NIH3T3 fibroblasts", "conditions": "12.5-200 μM"}, "BACE 1": {"molecular_target": "BACE 1 (Homo sapiens, UniProt P56817)", "sequence (P56817 46-501)": "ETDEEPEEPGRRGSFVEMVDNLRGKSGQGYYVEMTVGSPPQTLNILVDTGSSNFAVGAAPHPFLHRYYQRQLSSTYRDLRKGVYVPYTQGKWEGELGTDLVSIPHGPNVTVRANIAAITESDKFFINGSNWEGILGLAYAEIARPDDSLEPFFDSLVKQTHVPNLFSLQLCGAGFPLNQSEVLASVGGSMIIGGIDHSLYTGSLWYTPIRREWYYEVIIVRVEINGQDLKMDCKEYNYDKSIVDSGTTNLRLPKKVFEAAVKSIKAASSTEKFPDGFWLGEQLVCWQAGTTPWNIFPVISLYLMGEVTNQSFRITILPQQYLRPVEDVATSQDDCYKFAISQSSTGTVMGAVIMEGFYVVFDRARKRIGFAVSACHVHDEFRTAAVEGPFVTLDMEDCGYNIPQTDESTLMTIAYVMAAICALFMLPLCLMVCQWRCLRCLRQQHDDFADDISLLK", "assay": "Inhibition of BACE 1 activity (FRET kit)", "conditions": "for BACE1 inhibitory activity (in words): FRET"}, "AChE": {"molecular_target": "AChE (Electrophorus electricus, UniProt O42275)", "sequence (O42275 24-633 limits assumed)": "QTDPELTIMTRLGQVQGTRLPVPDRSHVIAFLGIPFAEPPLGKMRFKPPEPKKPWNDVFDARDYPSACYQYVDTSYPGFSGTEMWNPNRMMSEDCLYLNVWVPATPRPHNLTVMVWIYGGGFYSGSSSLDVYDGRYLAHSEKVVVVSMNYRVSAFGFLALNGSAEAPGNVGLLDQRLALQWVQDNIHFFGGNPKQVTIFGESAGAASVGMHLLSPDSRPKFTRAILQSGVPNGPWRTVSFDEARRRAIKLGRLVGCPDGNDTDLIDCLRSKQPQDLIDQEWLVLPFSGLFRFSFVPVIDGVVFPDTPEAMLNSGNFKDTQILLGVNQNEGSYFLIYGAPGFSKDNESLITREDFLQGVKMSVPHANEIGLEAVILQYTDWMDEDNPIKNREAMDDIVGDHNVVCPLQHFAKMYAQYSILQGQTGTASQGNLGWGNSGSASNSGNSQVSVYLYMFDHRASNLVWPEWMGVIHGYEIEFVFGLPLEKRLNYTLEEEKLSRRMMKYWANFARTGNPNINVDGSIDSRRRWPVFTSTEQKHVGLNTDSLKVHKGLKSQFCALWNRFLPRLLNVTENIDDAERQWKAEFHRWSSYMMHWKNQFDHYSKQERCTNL", "assay": "biochemical", "conditions": "for Ki: read-out: AChE inhibition constant (Ki)"}}, "note": "Entries after “also recorded” stand apart in the source; their conditions may differ."}
{"smiles": "[Cl][Cd][Cl]", "note": "[Cadmium chloride, reference compound]", "values": [{"measurement": "Astrocytes viability", "setting": "astrocytes; at 100 μM", "result": 25, "unit": "%"}, {"measurement": "Astrocytes viability", "setting": "astrocytes; at concentrations 1 μM ≤", "result": "above 80%"}]}
{"smiles": "COc1ccc(CN)cc1OCCN1CCCCC1", "note": "[Compound F2S4-m, (4-methoxy-3-(2-(piperidin-1-yl)ethoxy)phenyl) methanamine]", "values": [{"measurement": "Cytotoxicity in astrocyte cultures", "setting": "astrocytes", "result": "not cytotoxic"}, {"measurement": "inhibition at 100 µM", "setting": "Aβ1–42", "result": 60.9, "unit": "%"}, {"measurement": "Solubility (solvents)", "setting": "[1]", "result": "MetOH, EtOH, Acetone, CHCl3, EtOAc, H2O"}, {"measurement": "Cytotoxicity in PC12 cell cultures", "setting": "PC12", "result": "not cytotoxic"}, {"measurement": "Cytotoxicity in fibroblast cultures", "setting": "NIH3T3 fibroblasts", "result": "not cytotoxic"}, {"measurement": "IC50", "setting": "BACE 1", "result": 16, "unit": "µM"}, {"measurement": "BACE1 inhibitory activity (in words)", "setting": "BACE 1", "result": "showed inhibitory activity"}, {"measurement": "AChE inhibitory activity (in words)", "setting": "AChE", "result": "showed inhibitory activity"}, {"measurement": "Ki", "setting": "AChE", "result": 0.4, "unit": "µM"}]}
{"smiles": "COc1cc(CN)ccc1OCCN1CCCCC1", "note": "[Compound F2S4-p, (3-methoxy-4-(2-(piperidin-1-yl)ethoxy)phenyl) methanamine]", "values": [{"measurement": "inhibition at 100 µM", "setting": "Aβ1–42", "result": 42.1, "unit": "%"}, {"measurement": "Solubility (solvents)", "setting": "[1]", "result": "MetOH, EtOH, water"}, {"measurement": "Cytotoxicity in fibroblast cultures", "setting": "NIH3T3 fibroblasts", "result": "showed cytotoxic"}, {"measurement": "BACE1 inhibitory activity (in words)", "setting": "BACE 1", "result": "not possible to determine its IC50 value; also recorded: did not show inhibitory activity; also recorded: did not show inhibition"}, {"measurement": "AChE inhibitory activity (in words)", "setting": "AChE", "result": "no significant effect; also recorded: did not show inhibitory activity; also recorded: did not show inhibition"}, {"measurement": "Ki", "setting": "AChE", "result": "> 100", "unit": "µM"}]}
{"smiles": "COc1ccc(CN)cc1OCCN1CCCC1", "note": "[Compound F3S4-m, (4-methoxy-3-(2-(pyrrolidin-1-yl)ethoxy)phenyl) methanamine]", "values": [{"measurement": "Cytotoxicity in astrocyte cultures", "setting": "astrocytes", "result": "not cytotoxic"}, {"measurement": "inhibition at 100 µM", "setting": "Aβ1–42", "result": 30.5, "unit": "%"}, {"measurement": "Solubility (solvents)", "setting": "[1]", "result": "MetOH, EtOH, Acetone"}, {"measurement": "Cytotoxicity in PC12 cell cultures", "setting": "PC12", "result": "not cytotoxic"}, {"measurement": "Cytotoxicity in fibroblast cultures", "setting": "NIH3T3 fibroblasts", "result": "not cytotoxic"}, {"measurement": "IC50", "setting": "BACE 1", "result": 8.38, "unit": "µM"}, {"measurement": "BACE1 inhibitory activity (in words)", "setting": "BACE 1", "result": "showed inhibitory activity"}, {"measurement": "AChE inhibitory activity (in words)", "setting": "AChE", "result": "showed inhibitory activity"}, {"measurement": "Ki", "setting": "AChE", "result": 0.19, "unit": "µM"}]}
